Key:
[1] = test system: aggrecanase activity in bovine cartilage explants; test: Bovine cartilage explant assay without added plasminogen (IL-1-induced aggrecanase degradation); assay type: cell-based; conditions: no added plasminogen
Source text: The assay described in Example 2 can be carried out with and without added plasminogen. With plasminogen, the active forms of the metalloproteinases (MMPs) and plasmin were generated. It is believed that MMPs, “aggrecanase” and plasmin degraded the cartilage explant in this assay. […] Therefore, in the absence of plasminogen, cartilage degradation occurred primarily as a result of “aggrecanase” activity.

[2] = test system: IL-1-stimulated release of radiolabelled proteoglycan from bovine cartilage explants; test: Bovine cartilage explant assay with rhIL-1α and plasminogen (35S-GAG release); assay type: cell-based; conditions: Bos taurus, rhIL-1α 5 ng/mL, plasminogen 0.4 μM
Source text: A tissue culture assay was used to measure the ability of the compounds of the present invention to slow the degradation of the extracellular matrix by metalloproteinases. This assay measured the amount of ^35S-glycosaminoglycan (^35S-GAG) released from labeled bovine cartilage explants.
Knee joints from a 1 to 3 week old calf were obtained immediately after sacrifice from the Abattoir and then transported on ice. The intact joints were washed well with tap water and soaked in 50% (v/v) Povidine iodine solution, obtained from Burre National, Inc., Baltimore, Md. All subsequent steps were performed in a laminar flow tissue culture hood using standard sterile technique. The joint was immobilized in a shank holder and the joint capsule was cut open to expose the articular cartilage. […]
Individual disks obtained were transferred to a tissue culture flask containing about 100 mL fresh media. […] When ready to label, the old media was replaced with 50 mL fresh media containing about 1.2 mCi ^35S-Sodium Sulfate. […]
The TC plates were then placed in the incubator and cultured for 3-4 days (initial incubation with rhIL-1α alpha takes at least 3 days to stimulate endogenous metalloproteinases). A 50 μL aliquot of media from each TC plate was saved and counted. […]

[3] = test system: aggrecanase cleavage of aggrecan (230K fragment); test: Aggrecanase neoepitope in IL-1-stimulated chondrocytes, BC-3 antibody immunoblot; assay type: cell-based, bovine
Description: Primary bovine articular chondrocytes from calf adio-carpal joints were isolated and cultured as above in Example 1, up to and including the addition of the following protein kinase inhibitors: 1) Protein kinase A (PKA) inhibitors; 0.5 μM H88 (Seikagaku Corp.), 0.5 μM H89 (Seikagaku Corp.); 2) Protein kinase C (PKC) inhibitors; 0.5 μM Calphostin C (Calbiochem), 1.0 μM Chelerythrine (Calbiochem); 3) CA^2+/Calmodulin Kinase II inhibitor; 5.0 μM KN93 (Seikagaku Corp.); 4) Protein tyrosine kinase (PTK) inhibitors; 50 μM Genistein (Calbiochem), 10 μM Herbimycin A (Calbiochem). After the 24 hour IL-1α incubation, the media of each sample was measured, and collected on ice in the presence of the protease inhibitors EGTA (5 mM), Pefaloc (1 mM), pepstatin (1 μg/ml), and NEM (5 mM). Media were concentrated approximately 40 fold using a Centriprep-10 ultrafiltration device (Amicon).
Proteoglycans contained within the media were deglycosylated by incubations with chondroitinase ABC, keratinase, and keratinase II following the procedure of Sandy et al. J Biol Chem (1991) 266:8683-8685 and Sandy et al. J. Clin Invest (1992) 89:1512-1516. Samples of deglycosylated media were subjected to 4-15% gradient SDS-PAGE and transferred to nitrocellulose membranes (2 ml-worth and 6 ml-worth of media were used for 2-B-6 and BC-3 immunoblotting, respectively.) The membranes were blocked with 1% nonfat dry milk and 1% BSA, and then incubated in either the BC-3 or 2-B-6 primary monoclonal antibody for 1 hour. The 2-B-6 antibody detects chondroitin sulfate stubs on chondroitinase-treated proteoglycans (both intact and degradation products. BC-3 antibody detects “ARGSV . . . ,” the new N-terminus (“neoepitope”) resulting from cleavage of aggrecan interglobular domain at Glu^373/ALA^374 by aggrecanase. It is of note to mention that the BC-3 and 2-B-6 antibodies were of low sensitivity. Following 3 washes, membranes were incubated in either alkaline phosphatase-conjugated goat anti-mouse (for the 2-B-6 blot) or biotinylated goat anti-mouse (for the BC-3 blot); followed by alkaline phosphatase-conjugated streptavidin/biotin complex). After washing 3 times, immunoreactive proteins were detected using NBT/BCIP (Sigma) colorimetric substrate.

In the case of N#CC(C#N)=Cc1ccc([N+](=O)[O-])c(O)c1 [Tyrphostin AG 126], the “inhibition of release of 35S-labelled proteoglycan” value ([1]; 50 μM) is reported as “no effect”.

N#CC(C#N)=Cc1cc(O)c(O)c(O)c1 [Tyrphostin AG 82] was tested, and the “inhibition of release of 35S-labelled proteoglycan” value ([1]; 50 μM) was 31%.

With CO[C@H]1[C@@H](OC)C[C@H](C)[C@@H](OC)C2=CC(=O)C=C(NC(=O)/C(C)=C/C=C\[C@H](OC)[C@@H](OC(N)=O)/C(C)=C/[C@@H]1C)C2=O [Herbimycin A] the inhibition at 2 µM [2] was ~70%, the inhibition at 0.25 µM ([1]; Bos taurus, 0.25 μM, read-out: inhibition of release of 35S-labelled proteoglycan) was 55% and the inhibition at 0.5 µM ([1]; Bos taurus, 0.5 μM, read-out: inhibition of release of 35S-labelled proteoglycan) was 63%. The inhibition at 1 µM ([1]; Bos taurus, 1 μM, read-out: inhibition of release of 35S-labelled proteoglycan) was 78% and the “BC-3 immunoreactive band at approximately 230K (aggrecanase-mediated fragment)” value ([3]; 10 μM) was “not present”.

For O=c1c(-c2ccc(O)cc2)coc2cc(O)cc(O)c12 [Genistein], the inhibition at 50 µM ([1]; Bos taurus, 50 μM, read-out: inhibition of release of 35S-labelled proteoglycan) was 37% and the “BC-3 immunoreactive band at approximately 230K (aggrecanase-mediated fragment)” value ([3]; 50 μM) was “not present”.

Source: patent US6552066B1, “Protein tyrosine kinase inhibitors for treating osteoarthritis” (priority 1995, dated 2003)
